Measured values reported in patent publication US20230115176A1 (Ra Pharmaceuticals, Inc., priority 2019, published 2023).
Converted amounts (≈) assume the structure as drawn.

Legend:
[1] = target: human C5 complement protein (Homo sapiens, UniProt P01031); assay: Surface plasmon resonance (SPR), immobilized human C5, 37° C. (Example 12, Table 21); type: binding; details: where a range of compound concentrations were analyzed, the lowest value obtained
Text: (§1) Compound CU0136 is a racemic mixture of Compound CU0186 and CU0187. Numbers in parenthesis following compound numbers indicate alternate enantiomers (as distinguished by retention time during chromatographical separation).

[2] = target: T1, Human C5 (Homo sapiens, UniProt P01031); assay: Red blood cell (RBC) hemolysis assay, luminescent (Example 13, Table 22); type: cell-based; details: sheep EA cells, […] C5-depleted human serum, 0.5 nM human C5, 1 hour 37° C., luminescence; further: 1.5% C5-depleted human serum
T1 construct: purchased Complement Technology
T1 sequence (P01031 19-1676): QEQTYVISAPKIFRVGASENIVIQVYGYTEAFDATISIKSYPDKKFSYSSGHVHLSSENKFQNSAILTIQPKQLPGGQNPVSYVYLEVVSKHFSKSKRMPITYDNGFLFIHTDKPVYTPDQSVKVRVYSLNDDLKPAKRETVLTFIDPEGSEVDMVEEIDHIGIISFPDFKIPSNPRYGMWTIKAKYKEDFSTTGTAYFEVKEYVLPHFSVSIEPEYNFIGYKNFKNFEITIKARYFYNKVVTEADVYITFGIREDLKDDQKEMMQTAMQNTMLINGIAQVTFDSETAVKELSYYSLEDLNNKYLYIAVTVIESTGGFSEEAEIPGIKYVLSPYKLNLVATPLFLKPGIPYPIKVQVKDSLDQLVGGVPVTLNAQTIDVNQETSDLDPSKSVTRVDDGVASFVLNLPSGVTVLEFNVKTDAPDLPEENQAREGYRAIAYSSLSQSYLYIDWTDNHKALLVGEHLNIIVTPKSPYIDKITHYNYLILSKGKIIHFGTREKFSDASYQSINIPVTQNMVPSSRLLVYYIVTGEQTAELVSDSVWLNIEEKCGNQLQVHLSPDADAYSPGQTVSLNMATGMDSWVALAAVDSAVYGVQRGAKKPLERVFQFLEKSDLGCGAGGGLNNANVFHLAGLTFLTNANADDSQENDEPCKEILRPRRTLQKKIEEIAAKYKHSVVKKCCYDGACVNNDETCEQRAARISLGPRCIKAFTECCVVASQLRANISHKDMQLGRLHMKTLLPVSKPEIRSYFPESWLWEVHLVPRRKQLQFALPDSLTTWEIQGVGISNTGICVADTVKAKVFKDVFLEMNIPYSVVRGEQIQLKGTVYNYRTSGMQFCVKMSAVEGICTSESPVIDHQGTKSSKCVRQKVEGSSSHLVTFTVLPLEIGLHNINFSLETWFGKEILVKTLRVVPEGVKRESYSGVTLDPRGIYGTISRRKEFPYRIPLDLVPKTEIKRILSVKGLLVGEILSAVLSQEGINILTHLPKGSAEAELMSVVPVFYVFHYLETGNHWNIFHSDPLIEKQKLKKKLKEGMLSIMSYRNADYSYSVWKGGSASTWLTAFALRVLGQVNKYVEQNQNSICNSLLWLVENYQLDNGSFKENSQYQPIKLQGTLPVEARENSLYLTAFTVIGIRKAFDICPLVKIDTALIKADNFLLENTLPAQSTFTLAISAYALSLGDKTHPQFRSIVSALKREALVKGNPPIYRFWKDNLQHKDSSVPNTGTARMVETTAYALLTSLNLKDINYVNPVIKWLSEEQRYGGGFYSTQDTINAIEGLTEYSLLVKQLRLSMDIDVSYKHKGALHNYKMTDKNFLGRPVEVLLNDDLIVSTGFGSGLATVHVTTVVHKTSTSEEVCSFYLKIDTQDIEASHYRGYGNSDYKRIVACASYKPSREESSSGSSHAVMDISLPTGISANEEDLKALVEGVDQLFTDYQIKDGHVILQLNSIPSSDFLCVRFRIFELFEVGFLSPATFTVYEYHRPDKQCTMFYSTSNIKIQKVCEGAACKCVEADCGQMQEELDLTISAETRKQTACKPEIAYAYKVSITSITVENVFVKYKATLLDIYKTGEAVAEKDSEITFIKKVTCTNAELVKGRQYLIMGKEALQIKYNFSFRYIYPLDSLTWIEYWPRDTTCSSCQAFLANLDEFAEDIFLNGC
Text: as §1

[3] = Kinetic solubility in PBS pH 7.4, HPLC-UV (Example 21, Table 27); type: physicochemical; details: phosphate buffered saline, aqueous buffer, kinetic from dmso stock, 0.5 M PBS, shaken minimum 24 h at approximately 25° C., HPLC-UV 270 nm
Procedure, shortened: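 10 mM DMSO stock diluted into 0.05 M PBS pH 7.4 (5% DMSO final), in triplicate, shaken ≥24 h at ~25 °C, then filtered by centrifugation. Supernatant concentration by HPLC-UV at 270 nm against external DMSO standards (15.6–500.0 μM).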

human C5 complement protein, sequence (P01031 19-1676): as above

Row | SMILES | Kd [1] [nM] | IC50 [2] [nM] | solubility kinetic [3] [µM]
1 | CCCCCOc1cc(N2CCCN(Cc3cccc(-c4cnn(C5CCN(C)CC5)c4)c3F)C2=O)ccc1OC [CU0127] | 9.5 | 30.2 | 
2 | CCCCCOc1cc(N2CCCN(Cc3cccc4c3ccn4CC(=O)N3CCOC(C)(C)C3)C2=O)ccc1OC [CU0030] | 1.8 | 26.9 | 
3 | CCCCCOc1cc(N2CCCN(Cc3cccc4c3ccn4CC3(O)CCN(C)CC3)C2=O)ccc1OC [CU0022] | 2.9 | 17.1 | 
4 | CCCCCOc1cc(N2CCN(Cc3cccc(F)c3Cl)C2=O)ccc1OC [CU0011] | 816 | 886 | 
5 | CCCCCOc1cc(N2CCCN(Cc3ccnc4c3ccn4CC(=O)N3CCN(CCOC)CC3)C2=O)ccc1OC [CU0057] | 18 | 22.4 | 
6 | CCCCCOc1cc(N2CCN(Cc3cccc4c3OCO4)C2=O)ccc1OC [CU0064] | 394 | 799 | 
7 | CCCCCOc1cc(N2CCCN(Cc3ccc(CC(=O)N(C)C)cc3Cl)C2=O)ccc1OC [CU0115] | 7.8 | 27.9 | 
8 | CCCCCOc1cc(N2CCCN(Cc3ccnc4[nH]ccc34)C2=O)ccc1OC [CU0032] | 47.5 | 51.8 | 
9 | CCCCCOc1cc(N2CCCN(Cc3ccnc4c3ccn4CC(=O)N3CCOC(C)(COC)C3)C2=O)ccc1OC (centres unmarked) [CU0049] | 21 | 44.7 | 
10 | CCCCCOc1cc(N2CCCN([C@@H](C)c3ccnc4c3ccn4CC(=O)N3CCOCC3)C2=O)ccc1OC [CU0045] | 26 | 32.8 | 
11 | CCCCCOc1cc(N2CCCN(Cc3ccnc4c3ccn4CC(=O)N3CCN(C)C(=O)C3)C2=O)ccc1OC [CU0060] | 14 | 40.3 | 
12 | CCCCCOc1cc(N2CCCN(Cc3ccnc4c3ccn4CC(=O)N3CCNC(=O)C3)C2=O)ccc1OC [CU0059] | 13.5 | 32.9 | 
13 | CCCCCOc1cc(N2CCCN(Cc3ccc(CC(=O)NC4CCN(C(C)=O)C4)cc3OC)C2=O)ccc1OC (centres unmarked) [CU0110] | 2 | 16.4 | 295 (≈ 171 µg/mL)
14 | CCCCCOc1cc(N2CCCN(Cc3cc(-c4cnn(C5COC5)c4)ccc3OC)C2=O)ccc1OC [CU0129] | 23.8 | 61.5 | 
15 | CCCCCOc1cc(N2CCCN(Cc3cccc4c3ccn4C3CCN(C)C3=O)C2=O)ccc1OC (centres unmarked) [CU0020] | 3 | 17.2 | 
16 | CCCCCOc1cc(N2CCCN(Cc3cccc(F)c3Cl)C2=O)ccc1OC [CU0012] | 326 | 128 | 
17 | CCCCCOc1cc(N2CCCN(Cc3cc(F)ccc3Cl)C2=O)ccc1OC [CU0014] | 174 | 77.6 | 
18 | CCCCCOc1cc(N2CCCN(Cc3ccc(CC(=O)N4CCCC4)cc3Cl)C2=O)ccc1OC [CU0118] | 12.8 | 35.3 | 
19 | CCCCCOc1cc(N2CCCN(Cc3ccnc4c3ccn4CC(=O)N3CCOC(CCO)C3)C2=O)ccc1OC (centres unmarked) [CU0046] | 15.5 | 38.9 | 
20 | CCCCCOc1cc(N2CCCN(Cc3ccnc4c3ccn4C3CCN(C)C3=O)C2=O)ccc1OC (single isomer, unassigned) [CU0039(1)] | 28 | 30 | 
21 | CCCCCOc1cc(N2CCCN(Cc3ccc(CC(=O)N4CC(=O)N(C)C(C)C4)cc3OC)C2=O)ccc1OC (centres unmarked) [CU0107] | 2 | 38 | 266 (≈ 154 µg/mL)

Row | SMILES | Kd [1] [nM] | IC50 [2] [nM] | solubility kinetic [3] [µM]
22 | CCCCCOc1cc(N2CCCN(Cc3ccc(CC(=O)N4CCCN(C)CC4)cc3OC)C2=O)ccc1OC [CU0104] | 0.6 | 23.8 | 269 (≈ 152 µg/mL)
23 | CCCC(F)(F)COc1cc(N2CCCN(Cc3ccc(CC(=O)N4CCCOCC4)cc3OC)C2=O)ccc1OC [CU0112] | 2.6 | 25.9 | 
24 | CCCCCOc1cc(N2CCCN(Cc3ccnc4c3ccn4CC(=O)N(C)C)C2=O)ccc1C1CC1 [CU0036] | 25 | 121 | 
25 | CCCCCOc1cc(N2CCCN(Cc3ccc(CCN4CCOCC4)cc3OC)C2=O)ccc1OC [CU0124] | 6.4 | 26 | 
26 | CCCCCOc1cc(N2CCCN(Cc3cccc4c3ccn4CC(=O)N3CCOCC3)C2=O)ccc1OC [CU0029] | 2.1 | 15 | 
27 | CCCCCOc1cc(N2CCCN(Cc3cccc4c3c(C)cn4CC(=O)N(C)C)C2=O)ccc1OC [CU0231] | 0.9 | 20.3 | 64 (≈ 33.3 µg/mL)
28 | CCCCCOc1cc(N2CCCN(Cc3cccc4c3ccn4CC(=O)N(C)C)C2=O)ccc1OC [CU0025] | 5 | 13.6 | 
29 | CCCCCOc1cc(N2CCCN(Cc3ccc(CN(CC)CC)cc3OC)C2=O)ccc1OC [CU0121] | 27.5 | 38.9 | 
30 | CCCCCOc1cc(N2CCCN(Cc3ccc(CCN4CCCC4)cc3OC)C2=O)ccc1OC [CU0123] | 4.2 | 17.1 | 404 (≈ 206 µg/mL)
31 | CCCCCOc1cc(N2CCN(Cc3cccnc3OC)C2=O)ccc1OC [CU0017] | 188 | 106 | 
32 | CCCCCOc1cc(N2CCCN(Cc3ccnc4c3ccn4CC(=O)N3CCOCC3)C2=O)ccc1C1CC1 [CU0044] | 35.5 | 87.7 | 
33 | CCCCCOc1cc(N2CCCN([C@@H](C)c3ccnc4c3ccn4CC(=O)N3CCCOCC3)C2=O)ccc1OC [CU0055] | 10.5 | 31.2 | 
34 | CCCCCOc1cc(N2CCCN(Cc3ccc(CC(=O)N[C@H]4CN(C)C[C@H]4F)cc3OC)C2=O)ccc1OC [CU0106] | 2 | 43.9 | 453 (≈ 259 µg/mL)
35 | CCCCCOc1cc(N2CCCN(Cc3ccc(CC(=O)N4CCOC(COC)C4)cc3OC)C2=O)ccc1OC (centres unmarked) [CU0105] | 1.9 | 130 | 427 (≈ 249 µg/mL)
36 | CCCCCOc1cc(N2CCCN(Cc3ccc(CC(=O)N4CCCOCC4)cc3Cl)C2=O)ccc1OC [CU0117] | 8.3 | 32.5 | 
37 | CCCCCOc1cc(N2CCN(Cc3ccccc3OC)C2=O)ccc1OC [CU0001] | 29.5 | 35.6 | 
38 | CCCCCOc1cc(N2CCN(Cc3cc(F)ccc3Cl)C2=O)ccc1OC [CU0013] | 454 | 602 | 
39 | CCCCCOc1cc(N2CCCN(Cc3cc(F)ccc3OC)C2=O)ccc1OC [CU0003] | 14 | 28.4 | 
40 | CCCCCOc1cc(N2CCCN(Cc3ccnc4c3ccn4CC(=O)N3CC[C@@H](OC)C3)C2=O)ccc1OC [CU0041] | 17 | 55.2 | 
41 | CCCCCOc1cc(N2CCCN(Cc3cccc4c3OCO4)C2=O)ccc1OC [CU0065] | 370 | 123 | 
42 | CCCCCOc1cc(N2CCN(Cc3ccnc4c3ccn4CC(=O)N3CCOCC3)C2=O)ccc1OC [CU0042] | 106 | 63.1 | 

Row | SMILES | Kd [1] [nM] | IC50 [2] [nM] | solubility kinetic [3] [µM]
43 | CCCCCOc1cc(N2CCCN(Cc3ccc(CCC(=O)N(CC)CC)cc3OC)C2=O)ccc1OC [CU0008] | 6.5 | 62.9 | 
44 | CCCCCOc1cc(N2CCCN(Cc3cccc4c3ccn4Cc3nncn3C)C2=O)ccc1OC [CU0024] | 5 | 12.9 | 
45 | CCCCCOc1cc(N2CCCN(Cc3ccnc4c3ccn4CC(=O)N3CCOC(CN4CCCC4)C3)C2=O)ccc1OC (centres unmarked) [CU0051] | 8 | 45.9 | 
46 | CCCCCOc1cc(N2CCCN(Cc3ccnc4c3ccn4CC(=O)N3CCOC(COC)C3)C2=O)ccc1OC (centres unmarked) [CU0048] | 18.5 | 57.3 | 
47 | CCCCCOc1cc(N2CCN(Cc3ccnc4c3ccn4CC(=O)N(C)C)C2=O)ccc1OC [CU0033] | 62 | 136 | 
48 | CCCCCOc1cc(N2CCCN(Cc3cccc4c3ncn4CC(=O)N3CCN(C(C)=O)CC3)C2=O)ccc1OC [CU0063] | 10.5 | 28.3 | 
49 | CCCCCOc1cc(N2CCCN(Cc3cccc4c3ccn4CC(=O)N3CCNC(=O)C3)C2=O)ccc1OC [CU0028] | 5 | 8.9 | 
50 | CCCCCOc1cc(N2CCCN([C@@H](C)c3ccnc4c3ccn4CC(=O)N(C)C)C2=O)ccc1OC [CU0037] | 15.5 | 47.1 | 
51 | CCCCCOc1cc(N2CCCN(Cc3cccc4c3ccn4CC(=O)N3CCOC(COC)C3)C2=O)ccc1OC (centres unmarked) [CU0031] | 6 | 15.7 | 
52 | CCCCCOc1cc(N2CCCN(Cc3ccnc4c3ccn4CC(=O)N3CC(=O)N(C)C(C)C3)C2=O)ccc1OC (centres unmarked) [CU0062] | 17.5 | 33.4 | 
53 | CCCCCOc1cc(N2CCCN(Cc3cccc4c3ccn4CC3(O)CCNCC3)C2=O)ccc1OC [CU0021] | 1.5 | 14.5 | 
54 | CCCC(F)(F)COc1cc(N2CCCN(Cc3ccc(CC(=O)N(C)C)cc3OC)C2=O)ccc1OC [CU0111] | 3.4 | 25.2 | 
55 | CCCCCOc1cc(N2CCCN(Cc3ccc(CC(=O)N4CCCOCC4)cc3OC)C2=O)ccc1OC [CU0100] | 2.1 | 21 | 
56 | CCCCCOc1cc(N2CCCN(Cc3ccnc4c3ccn4CC(=O)N3CCN(C)C(=O)C3)C2=O)ccc1C1CC1 [CU0061] | 13 | 52.3 | 
57 | CCCCCOc1cc(N2CCN(Cc3ccc(C(C)(C)O)cc3OC)C2=O)ccc1OC [CU0004] | 10.5 | 12.1 | 
58 | CCCCCOc1cc(N2CCCN(Cc3cccc4c3ccn4CC(=O)N3CCCC3)C2=O)ccc1OC [CU0235] | 3.8 | 29.4 | 
59 | CCCCCOc1cc(N2CCCN(Cc3ccnc4c3ccn4CC(=O)N3CCN(C4CC4)CC3)C2=O)ccc1OC [CU0056] | 23 | 48.8 | 
60 | COc1ccc(N2CCCN(Cc3cccc4c3ccn4CC(=O)N(C)C)C2=O)cc1OCCCC(C)(F)F [CU0027] | 14 | 22.5 | 
61 | CCCCCOc1cc(N2CCCN(Cc3ccc(CCN(CC)CC)cc3OC)C2=O)ccc1OC [CU0122] | 9.6 | 17.1 | 
62 | CCCCCOc1cc(N2CCCN(Cc3ccc(Cc4nnco4)cc3OC)C2=O)ccc1OC [CU0120] | 3.6 | 11.8 | 
